Reference: patent US11730717B1, “Melanin-inspired antimicrobial” (The Board of Regents for the Oklahoma Agricultural and …, priority 2020, dated 2023)
Entries after “also recorded” stand apart in the source; their conditions may differ. Read-outs that look alike come from different tables or passages of the source.

How the values were obtained:
MRSA [1] = experiment: Kirby-Bauer disc diffusion assay; type: cell-based, Staphylococcus aureus; conditions: Staphylococcus aureus, 24-hour incubation at 37° C.
Method: The susceptibility of MRSA to EIPE-1 was determined by the Kirby-Bauer disc diffusion method. Using a cotton swab applicator, a lawn of the S. aureus clinical isolate was placed onto Mueller Hinton agar plates to cover the entire surface of the plate. Filter discs (size=6 mm) were added onto the bacterial lawn. EIPE-1, DBI, and DMSO (10 μL each) were then added onto the filter discs.
The efficacy of compound EIPE-1 was tested by the Kirby-Bauer disc assay. The Kirby-Bauer disc assay assesses the sensitivity of bacteria to antimicrobial agents. If the bacteria are sensitive to the antimicrobial being tested, then a zone of inhibition of bacterial growth is seen around the filter disc containing the antimicrobial. The Kirby-Bauer disc assay was used to test the antimicrobial efficacy of EIPE-1 against MRSA. EIPE-1 was reconstituted at 1 mg/mL in DMSO and serially diluted (10^−1 to 10^−5) after which 10 μL of each dilution (and DMSO as a solvent control) was added to a separate disc on an LB plate inoculated with a lawn of bacteria. The plates were incubated at 37° C. for 24 h, and the resulting radii zone sizes around each disc were then measured.

[2] = test system: Staphylococcus aureus ATCC 25923; experiment: Disc agar diffusion assay; type: cell-based
Method: (§1) As a further test of an embodiment, the antibacterial properties of EIPE-1 were tested across a large panel of organisms. EIPE-1 was dissolved in DMSO, impregnated onto sterile filter paper disks, and DMSO served as the untreated control according to the following procedure: • 1. Prepare a 2.5 μg/μL stock solution of EIPE-1 by micro pipetting 200 μL of DMSO into 2.0 mL Eppendorf Tube containing 0.5 mg of EIPE-1. Dissolve with vortex agitation and store at 4° C. • 2. Use forceps to pick up sterile 6.0 mm blank paper disks. Make sure to touch only one side of disc as lightly as possible. […] Lean the impregnated disc up against the side of a small sterile glass petri dish. Follow same procedure for DMSO control. Allow disks several hours to dry under flowing sterile air. • 3. Inoculate starter cultures using cells from working culture cultivated on Mueller-Hinton Agar (MHA; Difco Laboratories). Starters consist of ˜20 mL of Mueller-Hinton Broth (MHB; Difco Laboratories) in 125-mL culture flasks. Incubate starter cultures in an Excella E24 Benchtop Incubator Shaker (New Brunswick Scientific Co., Inc., Edison, N.J., USA) at 37° C. and 180 rpm for 15-18 hours. • 4. Pour at least 5.0 mL of NMB into 18-mL Kimax tubes. Use a Pasteur pipette to deliver enough of the starter culture cell suspension to reach an optical density (OD620) of 0.025 (Spectronic™ 20 optical spectrophotometer; Thermo Electron Corp., Madison, Wis., USA). Ensure that both transmittance and absorbance are set to 0.0 using a blank NMB sample. Incubate in rotary shaking incubator at 37° C. and 180 rpm until optical density reaches 0.1. • 5. Deliver 100 μL of test culture to the middle of a small 100 mm×15 mm Petri dish containing ˜⅛ in thickness of MHA. • 6. Saturate a sterile cotton swab with MHB by dipping the cotton swab into KIMAX® tube with MHB and then touch the swab to the north, south, east, and west side of the KIMAX® tube to remove excess broth. • 7. Streak the inoculum as follows: • a. Start in the center and make four straight lines to the 12, 3, 6, and 9 o'clock position on the petri dish. • b. Start at the 12 o'clock position and streak side to side all the way down the plate to the 6 o'clock position. […] Rotate the petri dish 90° and complete the same side to side streak all the way down the petri dish. • d. Complete step c. twice more. • e. Rotate petri dish 45° and complete the side-to-side streak. • f. Rotate petri dish 90° and complete the side-to-side streak. • 8. Use sterile forceps to transfer the DMSO control paper disc onto the agar surface and pat the paper disc down to ensure flush contact. Use the same technique to deliver EIPE-1 paper disc. • 9. Place petri dish at 4° C. for 1.0 hour to allow EIPE-1 diffusion in the absence of growth. • 10. Incubate petri dish at 37° C. for 18 hours. • 11. Observe for zones of growth inhibition surrounding disks. Measure diameter with electronic caliper and subtract 6.0-mm disc diameter. Results • a) Each organism was initially tested once to serve as a screen.

[3] = test system: Bacillus subtilis ATCC 6633; experiment: Disc agar diffusion assay; type: cell-based
Method: as §1

MRSA [4] = experiment: Comparison with Methicillin and Gentamicin, recoverable CFU; type: cell-based, Staphylococcus aureus; conditions: compared with Methicillin and Gentamicin treatment
Method: To determine CFUs of PA and MRSA after exposure to DMSO, DBI, EIPE-1, Gentamicin or Methicillin, 10-fold serial dilutions were prepared in 96-well micro plates using multichannel pipettes. For each dilution, 25 ptL of each sample was pipetted onto a plate containing agar medium and incubated for 18 h at 37° C. The number of colonies for each dilution were counted and used to back calculate the number of bacteria per mL (CFU/mL) in each original bacterial culture.
EIPE-1 antimicrobial activity against MRSA and PA was compared to that of Methicillin and Gentamicin treatment. Bacterial cultures were grown, normalized and then exposed to either DBI, DMSO (solvent control), EIPE-1, Methicillin or Gentamicin (FIG. 3). […] This is highly significant and novel as methicillin resistance is a huge problem in hospitals and patient treatment worldwide. […] Gram-negative bacteria like PA have an outer membrane covered with lipopolysaccharides that protects the bacteria from antibiotics, dyes, and detergents from penetrating the bacterial cell.

E. faecalis = experiment: MIC and MBC values (Table 2); type: cell-based, Enterococcus faecalis; conditions: repeated determinations
[5] = Group 3: Gram-positive organisms

COC(=O)c1cc2c(C#Cc3ccc(OCCC[N+](C)(C)C)cc3)c(OC)c(OC)c(C#Cc3ccc(OCCC[N+](C)(C)C)cc3)c2n1C [EIPE-1, 3,3′-((((5,6-dimethoxy-2-(methoxycarbonyl)-1-methyl-1H-indole-4,7-diyl)bis(ethyne-2,1-diyl))bis(4,1-phenylene))bis(oxy))bis(N,N,N-trimethylpropan-1-aminium) iodide] showed a zone of inhibition at 10 µg/mL (MRSA [1]; 10 μL of 0.01 mg/mL on disc) of 1 mm, a zone of inhibition at 100 µg/mL (MRSA [1]; 10 μL of 0.1 mg/mL on disc) of 1.5 mm and a zone of inhibition at 1000 µg/mL (MRSA [1]; 10 μL of 1.0 mg/mL on disc) of 2 mm. For the same molecule, the “susceptibility group in disc diffusion screen” value [2, 5] was “susceptible”, the “Inhibition Zone Diameter (mm) ± SD” value ([2]; S. aureus ATCC 25923, 25 μg per disk, zone minus disk diameter (6.0mm)) was 1.6 ± 0.1 mm and the “Inhibition Zone Diameter (mm) ± SD” value ([2]; S. aureus ATCC 25923, 50 μg per disk, zone minus disk diameter (6.0mm)) was 3.1 ± 0.2 mm. The zone of inhibition at 25 µg/disc ([2]; Staphylococcus aureus, ATCC25923, S. aureus ATCC 25923, 25 μg per disk, zone minus disk diameter (6.0mm), read-out: Inhibition Zone Diameter (mm) ± SD) was 1.6 mm, the zone of inhibition at 50 µg/disc ([2]; Staphylococcus aureus, ATCC25923, S. aureus ATCC 25923, 50 μg per disk, zone minus disk diameter (6.0mm), read-out: Inhibition Zone Diameter (mm) ± SD) was 3.1 mm and the zone of inhibition at 250 µg/disc ([2]; Staphylococcus aureus, ATCC25923, S. aureus ATCC 25923, 250 μg per disk, zone minus disk diameter (6.0mm), read-out: Inhibition Zone Diameter (mm) ± SD) was 2.3 ± 0.2 mm. The “Inhibition Zone Diameter (mm) ± SD” value ([3]; B. subtilis ATCC 6633, 25 μg per disk, zone minus disk diameter (6.0mm)) was 1.1 ± 0.2 mm, the “Inhibition Zone Diameter (mm) ± SD” value ([3]; B. subtilis ATCC 6633, 50 μg per disk, zone minus disk diameter (6.0mm)) was 3.3 ± 0.1 mm and the zone of inhibition at 25 µg/disc ([3]; Bacillus subtilis, ATCC6633, B. subtilis ATCC 6633, 25 μg per disk, zone minus disk diameter (6.0mm), read-out: Inhibition Zone Diameter (mm) ± SD) was 1.1 mm. For the same molecule, the zone of inhibition at 50 µg/disc ([3]; Bacillus subtilis, ATCC6633, B. subtilis ATCC 6633, 50 μg per disk, zone minus disk diameter (6.0mm), read-out: Inhibition Zone Diameter (mm) ± SD) was 3.3 mm, the zone of inhibition at 250 µg/disc ([3]; Bacillus subtilis, ATCC6633, B. subtilis ATCC 6633, 250 μg per disk, zone minus disk diameter (6.0mm), read-out: Inhibition Zone Diameter (mm) ± SD) was 1.8 ± 0.3 mm and the “susceptibility group in disc diffusion screen” value [3, 5] was “susceptible”. For the same molecule, the “biocidal activity against MRSA” value (MRSA [4]) was “effective in killing MRSA; also recorded: exhibited biocidal activity”, the MIC (E. faecalis; Enterococcus faecalis, read-out: MIC) was 1 µg/mL and the “MIC” value (E. faecalis) was 2.000 µg/mL.
